Experimental findings from patent US9265746B2, “Method for cell-specific targeting” (priority 2006, dated 2016) are described below.

Each structure is given as a SMILES string.

The data set concerns KB-cell xenografts. The data set is described as follows: Biodistribution of folate radiotracers in athymic nude mice bearing KB-cell xenografts, with or without antifolate. In kind it is in vivo. The conditions noted are these: 4 h p.i.; antifolate named in label pre-injected 1 h before radiotracer. The procedure:
Preparation of cells for in vivo experiments: For subcutaneous inoculation of the mice sub-confluent cells were harvested by treatment with EDTA (1 mM) in PBS (1×, pH 7.4). The cells were then washed once with PBS and pelleted by spinning at 1000×g for 5 min at 20° C. The cells were resuspended in PBS to obtain a concentration of 50×10^6 cells/mL.
In Vivo Studies. 4-5-week-old female, athymic nude mice (CD1-Foxn1/nu) were purchased from Charles River Laboratories (Sulzfeld, Germany). Mice were housed under conditions of controlled temperature (26° C.), humidity (68%) and daily light cycle (12 h light/12 h dark). The animals were fed with a folate-deficient rodent diet (to reduce their serum folate to a level near that of humans) (Mathias et al, J. Nucl. Med. 1996; 37:1003-08). After an acclimation period of 5-7 days, the mice were inoculated subcutaneously with the tumour cell suspension (5×10^6 cells) into the subcutis of the axilla. Radiotracer distribution studies were performed 12-14 days after tumour cell inoculation. The radiotracer (100 μL, 1a: 3.5 MBq/mL or 1b: 7 MBq/mL) was administered via a lateral tail vein. Antifolates (MTX, RTX and PMX) were dosed according to literature experiments at the upper limit of the tolerated dose (Li et al, Clin. Exp. Pharmacol. Physiol. 2004; 31:267-70; Pritchard et al, Clin. Cancer Res. 2000; 6:4389-95; Hughes et al, Journal of Clinical Oncology 2002; 20:3533-44; Aherne et al, Br. J. Cancer 1998; 77:221-26). MTX was supplemented to the drinking water (80 mg/mL) or intravenously injected (400 μg), 24 h, 2 h, 1 h, 30 min and 15 min previous to the administration of radiotracer 1a. RTX (100 μg) and PMX (400 μg) respectively were administered intravenously 2 h, 1 h, 30 min and 15 min previous to the radiotracer 1a. The animals were sacrificed and dissected 4 h p.i. of the radiotracer 1a. Additional biodistribution experiments were performed (30 min), 1 h, 4 h and 24 h post injection of the radiotracer 1a or 1b respectively with (antifolate) pre-treated animals 1 h previous to the experiment. The selected tissues were removed, weighted, and counted for radioactivity to determine distribution of radioactivity within the test animal. The results were tabulated as percentage of the injected dose per gram (% ID/g) of weight tissue, using reference counts from a definite sample of the original injectate.

As to `Nc1nc2ncc(CNc3ccc(C(=O)NC(CCC(=O)NCCCCCCn4cc5[n+](c4)[99Tc-5]4([C]#[O+])([C]#[O+])([C]#[O+])[NH2+]C(C5)C(=O)[O]4)C(=O)O)cc3)nc2c(=O)[nH]1` (stereo not drawn) [radiotracer 2a], the biodistribution blood is 0.19 ± 0.18 % ID/g, the biodistribution bone was 0.82 ± 0.13 % ID/g, the “biodistribution contents of intest.” value was 7.72 ± 4.36 % ID/g and the biodistribution heart stood at 0.80 ± 0.60 % ID/g. This compound also yielded a biodistribution intestines of 0.79 ± 0.43 % ID/g, a biodistribution kidney of 42.02 ± 7.31 % ID/g, a biodistribution liver of 4.51 ± 1.29 % ID/g and a biodistribution lung of 0.85 ± 0.08 % ID/g. The compound also gave a biodistribution muscle of 1.31 ± 0.28 % ID/g, a biodistribution spleen of 0.30 ± 0.05 % ID/g, a biodistribution stomach of 0.62 ± 0.22 % ID/g and a biodistribution tumour of 3.72 ± 0.89 % ID/g. This compound yielded a tumour-to-blood of 12.29 ± 4.22, a tumour-to-kidney of 0.09 ± 0.02 and a tumour-to-liver of 0.88 ± 0.38.

Consider `Nc1nc2ncc(CNc3ccc(C(=O)NC(CCC(=O)NCCCCCC[N+]45Cc6cccc[n+]6[99Tc-5]4([C]#[O+])([C]#[O+])([C]#[O+])[n+]4ccccc4C5)C(=O)O)cc3)nc2c(=O)[nH]1` (stereo not drawn) [radiotracer 3a], for which the biodistribution blood was determined as 0.03 ± 0.01 % ID/g, the biodistribution bone is given as 0.16 ± 0.02 % ID/g, the “biodistribution contents of intest.” value is given as 2.49 ± 12.10 % ID/g and the biodistribution heart is recorded as 0.20 ± 0.09 % ID/g. This compound returned a biodistribution intestines of 0.71 ± 0.40 % ID/g, a biodistribution kidney of 7.11 ± 0.75 % ID/g, a biodistribution liver of 1.72 ± 2.04 % ID/g and a biodistribution lung of 0.20 ± 0.02 % ID/g. In addition, the biodistribution muscle stood at 0.27 ± 0.01 % ID/g, the biodistribution spleen was 0.08 ± 0.02 % ID/g, the biodistribution stomach worked out at 0.54 ± 0.58 % ID/g and the biodistribution tumour turned out to be 0.82 ± 0.27 % ID/g. Besides, the tumour-to-blood is recorded as 27.00 ± 14.60, the tumour-to-kidney turned out to be 0.12 ± 0.05 and the tumour-to-liver is 1.24 ± 1.03.
